Results: US20210169984A1, “SENSITIZING CANCER TO DEATH RECEPTOR AGONISTS WITH KINASE INHIBITORS” (The Johns Hopkins University, priority 2016, published 2021)

Legend:
[1] = system: DU-145 prostate adenocarcinoma cells; experiment: KI library screen for TRAIL sensitization; assay type: cell-based, human
From the text: (§1) A library of KIs was screened for TRAIL sensitization in various TRAIL-resistant cancer cells, including: HT29 (CRC), MDA-MB-231 (breast), LNCAP (prostate), DU145 (prostate), PC3 (prostate) and A549 (lung). […] The 355 KIs comprised of compounds targeting diverse kinases, including multi kinases, RTK (receptor kinase tyrosine), PI3K (phosphinistide 3-kinase), aurora kinases, including […] (mitogen-activated protein kinase). […] The interaction between KIs and TRAIL had been previously explored in vitro with the tyrosine KI sorafenib, a drug similar to regorafenib. However, such studies were mostly performed on cellular levels and not in in vivo models, combined with systemically administered recombinant TRAIL. Although a similar structure, regorafenib was newly approved in 2012. The interactions between the three other selected KIs and TRAIL have not been previously reported, in vitro or in vivo.

[2] = system: PC3 prostate adenocarcinoma cells; experiment: KI library screen for TRAIL sensitization; assay type: cell-based, human
Protocol: FIG. 2B depicts a bar graph showing quantified cell death after analyzing synergized cell death induced by TRAILPEG (1 μg/mL for 3 hr) and kinase inhibitors (KIs) in HT29 (human colon tumor cell line) and PC3 (human prostate tumor cell line) cells individually pretreated with selected 355 KIs. Relative cell death rates were calculated by [KI+TRAILPEG]/[KI alone] after separate MTT assays. The arrows indicate KIs with >60% cell death; n=3.
as §1

[3] = system: HP LNCAP prostate adenocarcinoma cells; experiment: KI library screen for TRAIL sensitization; assay type: cell-based, human
From the text: as §1
Regorafenib potentiated TRAIL-induced apoptosis in prostate cancer cells (LNCAP, HPLNCAP (High Passages LNCAP), DU-145 and PC-3) when combined with TRAILPEG (1 μg/mL) (FIG. 5). After treating cells with regorafenib (5 μM), caspases and anti-apoptotic proteins were analyzed by western blotting (FIG. 6A-FIG. 6C). […] Data confirmed that FDA-approved KIs or KIs under clinical development synergized with long-acting TRAILPEG by overcoming TRAIL-resistance through unique TRAIL sensitization mechanisms.

[4] = system: A549 lung carcinoma cells; experiment: KI library screen for TRAIL sensitization; assay type: cell-based, human
From the text: as §1

[5] = mouse, in vivo; cited from earlier work
[6] = system: LNCAP prostate adenocarcinoma cells; experiment: KI library screen for TRAIL sensitization; assay type: cell-based, human
From the text: as §1

[7] = system: MDA-MB-231 breast cancer cells; experiment: KI library screen for TRAIL sensitization; assay type: cell-based, human
From the text: as §1

## C=CC(=O)Nc1ccc2ncnc(Nc3ccc(OCc4cccc(F)c4)c(Cl)c3)c2c1 [AST-1306]
[1]
  KIs that sensitize cancer cells to TRAIL-based agents: Example KIs that sensitize cancer cells to TRAIL-based agents.
[2]
  KIs that sensitize cancer cells to TRAIL-based agents: Example KIs that sensitize cancer cells to TRAIL-based agents.

## COc1cc2nccc(Oc3ccc(NC(=O)NC4CC4)c(Cl)c3)c2cc1C(N)=O [Lenvatinib (E7080), Lenvatinib]
[3]
  KIs that sensitize cancer cells to TRAIL-based agents: Example KIs that sensitize cancer cells to TRAIL-based agents.

## COCCOc1ccc2c(c1)ncn2-c1ccc2cccc(N3CCC(N)CC3)c2n1 [CP-673451]
[4]
  KIs that sensitize cancer cells to TRAIL-based agents: Example KIs that sensitize cancer cells to TRAIL-based agents.
[2]
  KIs that sensitize cancer cells to TRAIL-based agents: Example KIs that sensitize cancer cells to TRAIL-based agents.

## 2K-PEG-TRAIL: TRAIL derivatized with 2K PEG (Kim, et al.)
[5]
  circulating half-life: 3.9 h

## 10K-PEG-TRAIL: TRAIL derivatized with 10K PEG (Kim, et al.)
[5]
  circulating half-life: 6.2 h

## C=CC(=O)Nc1ccc2ncnc(Nc3cccc(Br)c3)c2c1 [PD168393]
[3]
  KIs that sensitize cancer cells to TRAIL-based agents: Example KIs that sensitize cancer cells to TRAIL-based agents.

## C=CC(=O)Nc1cccc(Oc2nc(Nc3ccc(N4CCN(C)CC4)cc3OC)ncc2Cl)c1 [WZ4002]
[4]
  KIs that sensitize cancer cells to TRAIL-based agents: Example KIs that sensitize cancer cells to TRAIL-based agents.
[3]
  KIs that sensitize cancer cells to TRAIL-based agents: Example KIs that sensitize cancer cells to TRAIL-based agents.

## COc1cc(N2CCC(N)CC2)ccc1Nc1ncc(Cl)c(-c2c[nH]c3ccccc23)n1 [AZD3463]
[1]
  KIs that sensitize cancer cells to TRAIL-based agents: Example KIs that sensitize cancer cells to TRAIL-based agents.
[2]
  KIs that sensitize cancer cells to TRAIL-based agents: Example KIs that sensitize cancer cells to TRAIL-based agents.

## CC(C)(C)c1cc(C=C(C#N)C#N)cc(C(C)(C)C)c1O [Tyrphostin 9]
[1]
  KIs that sensitize cancer cells to TRAIL-based agents: Example KIs that sensitize cancer cells to TRAIL-based agents.
[6]
  KIs that sensitize cancer cells to TRAIL-based agents: Example KIs that sensitize cancer cells to TRAIL-based agents.
[3]
  KIs that sensitize cancer cells to TRAIL-based agents: Example KIs that sensitize cancer cells to TRAIL-based agents.
[2]
  KIs that sensitize cancer cells to TRAIL-based agents: Example KIs that sensitize cancer cells to TRAIL-based agents.

## COc1cc2c(Oc3ccc(NC(=O)C4(C(=O)Nc5ccc(F)cc5)CC4)cc3F)ccnc2cc1OCCCN1CCOCC1 [Foretinib (GSK1363089), Foretinib]
[1]
  KIs that sensitize cancer cells to TRAIL-based agents: Example KIs that sensitize cancer cells to TRAIL-based agents.

## 30K-PEG-TRAIL: TRAIL derivatized with 30K PEG (Kim, et al.)
[5]
  circulating half-life: 17.7 h

## CC(C)(C)c1cc(/C=C(\C#N)C(N)=S)cc(C(C)(C)C)c1O [Tyrphostin AG 879]
[3]
  KIs that sensitize cancer cells to TRAIL-based agents: Example KIs that sensitize cancer cells to TRAIL-based agents.

## 20K-PEG-TRAIL: TRAIL derivatized with 20K PEG (Kim, et al.)
[5]
  circulating half-life: 12.3 h

## CCOc1cc2ncc(C#N)c(Nc3ccc(OCc4ccccn4)c(Cl)c3)c2cc1NC(=O)/C=C/CN(C)C [Neratinib (HKI-272), Neratinib]
[1]
  KIs that sensitize cancer cells to TRAIL-based agents: Example KIs that sensitize cancer cells to TRAIL-based agents.

## Cn1cc(-c2ccc3nnc(Sc4ccc5ncccc5c4)n3n2)cn1 [SGX-523]
[6]
  KIs that sensitize cancer cells to TRAIL-based agents: Example KIs that sensitize cancer cells to TRAIL-based agents.
[3]
  KIs that sensitize cancer cells to TRAIL-based agents: Example KIs that sensitize cancer cells to TRAIL-based agents.

## COc1cc2ncnc(Nc3ccc(F)c(Cl)c3)c2cc1NC(=O)/C=C/CN1CCCCC1 [Dacomitinib (PF299804, PF299), Dacomitinib]
[1]
  KIs that sensitize cancer cells to TRAIL-based agents: Example KIs that sensitize cancer cells to TRAIL-based agents.
[7]
  KIs that sensitize cancer cells to TRAIL-based agents: Example KIs that sensitize cancer cells to TRAIL-based agents.

## 5K-PEG-TRAIL: TRAIL derivatized with 5K PEG (Kim, et al.)
[5]
  circulating half-life: 5.3 h
